Results reported in US11008297B2, “Bio-based, multi-aromatic compounds, and methods of making and using same” (ROWAN UNIVERSITY, priority 2017, dated 2021).

Assay: UV-VIS spectroscopy during titration with sodium hydroxide (pH dependence of absorbance)
Format: physicochemical
Settings: 0.25 g in 100 mL deionized water, titrated with 0.1 M sodium hydroxide, UV-VIS at every 0.5 pH
Protocol: FIG. 8 comprises a graph illustrating maximum absorbance as a function of pH for a compound of the invention.
Triguaiacol (0.25 g, Example 4) was dissolved in 100 mL of deionized water. The mixture was titrated with 0.1 M sodium hydroxide solution. At every 0.5 pH, UV-VIS spectroscopy was performed on a portion of the mixture. The wavelength in the absorbance spectrum where the absorbance is at a maximum was measured.

Q: For COc1cc(C(c2ccc(O)c(OC)c2)c2ccc(O)c(OC)c2)ccc1O [Triguaiacol, 4,4′,4″-methanetriyltris(2-methoxyphenol)], which “wavelength in the absorbance spectrum where the absorbance is at a maximum” value is on record?
A: Its value is “decrease with increasing pH”.
